Source: patent publication US20240400591A1 (Jacobio Pharmaceuticals Co., Ltd., priority 2021, published 2024)

Molecular target: T1, His-p53 Y220C (94-294) protein (Homo sapiens, UniProt P04637, Y220C)
T1 construct: His-p53 Y220C (94-294) protein
Experiment: In vitro DNA binding assay (HTRF)
Format: biochemical
Settings: % activation normalized to 2 μM Ref-1a high control

| SMILES | EC50 [nM] |
| --- | --- |
| CN1CCC(Nc2cccc3c(CC(F)(F)F)c(C#CCNc4cccc5c(C6CCNCC6)c[nH]c45)sc23)CC1 [Example 30, N-(3-(7-((1-methylpiperidin-4-yl)amino)-3-(2,2,2-trifluoroethyl)benzo[b]thiophen-2-yl)prop-2-yn-1-yl)-3-(piperidin-4-yl)-1H-indol-7-amine] | 452 |
| COc1cc(P(C)(C)=O)ccc1NCC#Cc1sc2c(NC3CCN(C)CC3F)cccc2c1-c1cncs1 (stereo not shown) [Example 116, (4-((3-(7-(((Z)-3-fluoro-1-methylpiperidin-4-yl)amino)-3-(thiazol-5-yl)benzo[b]thiophen-2-yl)prop-2-yn-1-yl)amino)-3-methoxyphenyl)dimethylphosphine oxide] | 5130 |
| CSc1c(NCC#Cc2sc3c(N[C@@H]4CCN(C)C[C@@H]4F)cccc3c2CC(F)(F)F)ccc(P(C)(C)=O)c1F [Example 221, (2-fluoro-4-((3-(7-(((3S,4R)-3-fluoro-1-methylpiperidin-4-yl)amino)-3-(2,2,2-trifluoroethyl)benzo[b]thiophen-2-yl)prop-2-yn-1-yl)amino)-3-(methylthio)phenyl)dimethylphosphine oxide] | 169 |
| CN1CC[C@@H](Nc2cccc3c(CC(F)(F)F)c(C#CCNc4ccc(S(C)(=O)=O)cc4P(C)(C)=O)sc23)[C@@H](F)C1 [Example 171, (2-((3-(7-(((3S,4R)-3-fluoro-1-methylpiperidin-4-yl)amino)-3-(2,2,2-trifluoroethyl)benzo[b]thiophen-2-yl)prop-2-yn-1-yl)amino)-5-(methylsulfonyl)phenyl)dimethylphosphine oxide] | 178 |
| CCP(=O)(CC)c1ccc(NCC#Cc2sc3c(NC4CCN(C5CCOCC5)CC4)cccc3c2CC(F)(F)F)c(OC)c1 [Example 155, diethyl(3-methoxy-4-((3-(7-((1-(tetrahydro-2H-pyran-4-yl)piperidin-4-yl)amino)-3-(2,2,2-trifluoroethyl)benzo[b]thiophen-2-yl)prop-2-yn-1-yl)amino)phenyl)phosphine oxide] | 147 |
| COc1cc(S(C)(=O)=O)ccc1NCC#Cc1sc2c(N[C@H]3CC[C@H](N4CC5(CCOCC5)C4)CC3)cccc2c1CC(F)(F)F [Example 18, Trans-N-(4-(7-oxa-2-azaspiro[3.5]nonan-2-yl)cyclohexyl)-2-(3-((2-methoxy-4-(methylsulfonyl)phenyl)amino)prop-1-yn-1-yl)-3-(2,2,2-trifluoroethyl)benzo[b]thiophen-7-amine] | 173 |
| COc1cc(S(C)(=O)=O)ccc1NCC#Cc1sc2c(NC3CC4CCC(C3)N4C)cccc2c1CC(F)(F)F (stereo not shown) [Example 26, N-(2-(3-((2-methoxy-4-(methylsulfonyl)phenyl)amino)prop-1-yn-1-yl)-3-(2,2,2-trifluoroethyl)benzo[b]thiophen-7-yl)-8-methyl-8-azabicyclo[3.2.1]octan-3-amine] | 169 |
| COc1cc(C(=O)N2CCS(=O)(=O)CC2)ccc1NCC#Cc1sc2c(N[C@H]3CCN(C)C[C@H]3F)cccc2c1CC(F)(F)F (racemic) [Example 48, (1,1-dioxidothiomorpholino)(4-((3-(7-(((3R,4S)-3-fluoro-1-methylpiperidin-4-yl)amino)-3-(2,2,2-trifluoroethyl)benzo[b]thiophen-2-yl)prop-2-yn-1-yl)amino)-3-methoxyphenyl)methanone] | 84 |
| COc1cc(C(=O)NC2CCN(C)CC2)ccc1NCC#Cc1sc2c(NC3CCN(C)CC3F)cccc2c1CC(F)(F)F (racemic) [Example 47, 4-((3-(7-((3-fluoro-1-methylpiperidin-4-yl)amino)-3-(2,2,2-trifluoroethyl)benzo[b]thiophen-2-yl)prop-2-yn-1-yl)amino)-3-methoxy-N-(1-methylpiperidin-4-yl)benzamide] | 20 |
| CNC(=O)c1ccc(NCC#Cc2sc3c(N[C@@H]4CCN(C)C[C@@H]4F)cccc3c2CC(F)(F)F)c(C#N)c1 (racemic) [Example 95, 3-cyano-4-((3-(7-(((Z)-3-fluoro-1-methylpiperidin-4-yl)amino)-3-(2,2,2-trifluoroethyl)benzo[b]thiophen-2-yl)prop-2-yn-1-yl)amino)-N-methylbenzamide] | 133 |
| COc1cc(S(C)(=O)=O)ccc1NCC#Cc1sc2c(NC3CCN(CC(F)(F)F)CC3)cccc2c1CC(F)(F)F [Example 37, N-(2-(3-((2-methoxy-4-(methylsulfonyl)phenyl)amino)prop-1-yn-1-yl)-3-(2,2,2-trifluoroethyl)benzo[b]thiophen-7-yl)-1-(2,2,2-trifluoroethyl)piperidin-4-amine] | 3880 |
| COc1cc(S(C)(=O)=O)ccc1NCC#Cc1cc2c(N[C@H]3CC[C@@H](N4CC5(COC5)C4)CC3)cccc2n1CC(F)(F)F [Example 39, Cis-N-(4-(2-oxa-6-azaspiro[3.3]heptan-6-yl)cyclohexyl)-2-(3-((2-methoxy-4-(methylsulfonyl)phenyl)amino)prop-1-yn-1-yl)-1-(2,2,2-trifluoroethyl)-1H-indol-4-amine] | 157 |
| COc1cc(P(C)(C)=O)ccc1NCC#Cc1sc2c(N[C@H]3CCN(C)C[C@@H]3F)cccc2c1-c1ccc(F)cc1 (racemic) [Example 139, (4-((3-(7-(((E)-3-fluoro-1-methylpiperidin-4-yl)amino)-3-(4-fluorophenyl)benzo[b]thiophen-2-yl)prop-2-yn-1-yl)amino)-3-methoxyphenyl)dimethylphosphine oxide] | 1220 |
| CN1CC[C@@H](Nc2cccc3c(CC(F)(F)F)c(C#CCNc4ccc(P(C)(C)=O)nc4C#N)sc23)[C@@H](F)C1 [Example 224, 6-(dimethylphosphoryl)-3-((3-(7-(((3S,4R)-3-fluoro-1-methylpiperidin-4-yl)amino)-3-(2,2,2-trifluoroethyl)benzo[b]thiophen-2-yl)prop-2-yn-1-yl)amino)picolinonitrile] | 87 |
| COc1cc(S(=O)(=O)N(C)C)ccc1NCC#Cc1sc2c(NC3CCN(C)CC3)cccc2c1CC(F)(F)F [Example 21, 3-methoxy-N,N-dimethyl-4-((3-(7-((1-methylpiperidin-4-yl)amino)-3-(2,2,2-trifluoroethyl)benzo[b]thiophen-2-yl)prop-2-yn-1-yl)amino)benzenesulfonamide] | 341 |

More lines, in order of falling EC50, values ahead:

| EC50 [nM] | SMILES |
| --- | --- |
| 6400 | CN1CCC(Nc2cccc3c(CC(F)(F)F)c(C#CCNc4cccc5cc[nH]c45)sc23)CC1 [Example 29, N-(3-(7-((1-methylpiperidin-4-yl)amino)-3-(2,2,2-trifluoroethyl)benzo[b]thiophen-2-yl)prop-2-yn-1-yl)-1H-indol-7-amine] |
| 479 | COc1cc(S(C)(=O)=O)ccc1NCC#Cc1sc2c(NC3CCN(C)CC3)ccc(F)c2c1CC(F)(F)F [Example 51, N-(4-fluoro-2-(3-((2-methoxy-4-(methylsulfonyl)phenyl)amino)prop-1-yn-1-yl)-3-(2,2,2-trifluoroethyl)benzo[b]thiophen-7-yl)-1-methylpiperidin-4-amine] |
| 312 | COc1cc(S(C)(=O)=O)ccc1NCC#Cc1sc2c(NC3C4CCC3CN(C)C4)cccc2c1CC(F)(F)F (stereo not shown) [Example 25, N-(2-(3-((2-methoxy-4-(methylsulfonyl)phenyl)amino)prop-1-yn-1-yl)-3-(2,2,2-trifluoroethyl)benzo[b]thiophen-7-yl)-3-methyl-3-azabicyclo[3.2.1]octan-8-amine] |
| 272 | COc1cc(P(C)(C)=O)ccc1NCC#Cc1sc2c(NC3CCN(C)CC3C#N)cccc2c1CC(F)(F)F (stereo not shown) [Example 90, 4-((2-(3-((4-(dimethylphosphoryl)-2-methoxyphenyl)amino)prop-1-yn-1-yl)-3-(2,2,2-trifluoroethyl)benzo[b]thiophen-7-yl)amino)-1-methylpiperidine-3-carbonitrile] |
| 224 | COc1cc(P(C)(C)=O)ccc1NCC#Cc1sc2c(NCC34CCCN3CCC4)cccc2c1CC(F)(F)F [Example 54, (3-methoxy-4-((3-(7-(((tetrahydro-1H-pyrrolizin-7a(5H)-yl)methyl)amino)-3-(2,2,2-trifluoroethyl)benzo[b]thiophen-2-yl)prop-2-yn-1-yl)amino)phenyl)dimethylphosphine oxide] |
| 124 | COc1cc(S(C)(=O)=O)ccc1NCC#Cc1sc2c(NC3CCC(N(C)C)CC3)cccc2c1CC(F)(F)F (stereo not shown) [Example 16, N1-(2-(3-((2-methoxy-4-(methylsulfonyl)phenyl)amino)prop-1-yn-1-yl)-3-(2,2,2-trifluoroethyl)benzo[b]thiophen-7-yl)-N4,N4-dimethylcyclohexane-1,4-diamine] |
| 120 | CN1CC[C@@H](Nc2cccc3c(CC(F)(F)F)c(C#CCNc4ccc(P(C)(C)=O)c5c4OC(F)(F)O5)sc23)[C@@H](F)C1 [Example 164, (2,2-difluoro-7-((3-(7-(((3S,4R)-3-fluoro-1-methylpiperidin-4-yl)amino)-3-(2,2,2-trifluoroethyl)benzo[b]thiophen-2-yl)prop-2-yn-1-yl)amino)benzo[d][1,3]dioxol-4-yl)dimethylphosphine oxide] |
| 114 | CN1CCC(Nc2cccc3c(CC(F)(F)F)c(C#CCNc4ccc(S(C)(=O)=O)cc4OCF)sc23)CC1 [Example 11, N-(2-(3-((2-(fluoromethoxy)-4-(methylsulfonyl)phenyl)amino)prop-1-yn-1-yl)-3-(2,2,2-trifluoroethyl)benzo[b]thiophen-7-yl)-1-methylpiperidin-4-amine] |
| 86 | COc1cc(C(=O)N2CCOCC2)ccc1NCC#Cc1sc2c(NC3CCN(C)CC3F)cccc2c1CC(F)(F)F (stereo not shown) [Example 50, (4-((3-(7-(((Z)-3-fluoro-1-methylpiperidin-4-yl)amino)-3-(2,2,2-trifluoroethyl)benzo[b]thiophen-2-yl)prop-2-yn-1-yl)amino)-3-methoxyphenyl)(morpholino)methanone] |
| 78 | CN1CC[C@H](Nc2cccc3c(CC(F)(F)F)c(C#CCNc4ccc(P(C)(C)=O)cc4OC(F)(F)F)sc23)[C@H](F)C1 [Example 137, (4-((3-(7-(((3R,4S)-3-fluoro-1-methylpiperidin-4-yl)amino)-3-(2,2,2-trifluoroethyl)benzo[b]thiophen-2-yl)prop-2-yn-1-yl)amino)-3-(trifluoromethoxy)phenyl)dimethylphosphine oxide] |
